{
  "source": "patent US11771692B2",
  "about": "“N-hydroxyethyl didehydroazapodophyllotoxins as GBP1 inhibitors and methods of overcoming treatment resistance in cancer” (The Board of Trustees of the Leland Stanford Junior …, priority 2018, dated 2023)",
  "key": {"OVCAR8 cells": {"tested_on": "OVCAR8 cells", "assay": "Colony formation (clonogenic) assay in OVCAR8 cells", "format": "cell-based"}, "SCC-90 cells [1]": {"tested_on": "SCC-90 cells", "assay": "Clonogenic radiosensitization assay in SCC-90 cells", "format": "cell-based", "details": "SCC-90, SU093 50 nM then radiation", "excerpt": "(§1) The potential for GBP1 inhibition and radiosensitzation in head and neck cancer cells was also investigated."}, "[2]": {"tested_on": "GBP1-OV and GBP1-KD OVCAR8 cells", "assay": "MTT cell viability in GBP1-WT, GBP1-OV and GBP1-KD OVCAR8 cells", "format": "cell-based", "excerpt": "(§2) FIG. 3, panels A-E. FIG. 3, panel A illustrates the effects of SU093 on survival of human normal HEK293 cell line and ovarian cancer cell lines OVCAR8 & SKOV3 cells via MTT assay. FIG. 3, panel B illustrates the effect of SU093 on GBP1 and PIM1 expression in OVCAR8 cells. […] FIG. 3, panel D illustrates quantification of overexpression and knockdown of GBP1 gene in stably transfected OVCAR8 cells. FIG. 3, panel E illustrates cytotoxicity of SU093 as evaluated in GBP1-OV, GBP1-WT and GBP1-KD OVCAR8 via MTT assay.\n(§3) Furthermore, OVCAR8 cells with overexpressed (OV) and knockdown (KD) of GBP1 gene were created (FIG. 3, panel D) and cell viability experiments were performed on GBP1-WT (wild-type), GBP1-OV and GBP1-KD OVCAR8 cells at different doses of SU093."}, "SKOV3": {"tested_on": "SKOV3", "assay": "MTT cytotoxicity assay, SKOV3", "format": "cell-based", "details": "Homo sapiens, SK-OV-3; SKOV3 ovarian cancer cell line", "excerpt": "as §2, §3"}, "DU145": {"tested_on": "DU145", "assay": "MTT cytotoxicity assay, DU145", "format": "cell-based", "details": "Homo sapiens, DU-145, Prostate", "excerpt": "(§4) It was observed that SU093 was highly cytotoxic for all cell lines tested with IC50 values in the nanomolar range."}, "OVCAR8": {"tested_on": "OVCAR8", "assay": "MTT cytotoxicity assay, OVCAR8", "format": "cell-based", "details": "Homo sapiens, OVCAR-8, Ovarian", "description": "as §4, §3"}, "GBP1": {"tested_on": "GBP1", "assay": "Confocal microscopy of GBP1 and β-tubulin in SCC-90 cells", "format": "cell-based", "details": "SCC-90, SU093 50 nM, 6 h", "excerpt": "as §1"}, "MCF7": {"tested_on": "MCF7", "assay": "MTT cytotoxicity assay, MCF7", "format": "cell-based", "details": "Homo sapiens, Breast", "excerpt": "as §4"}, "SCC-90 cells [3]": {"tested_on": "SCC-90 cells", "assay": "MTT cell viability in SCC-90 cells with GBP1 overexpression and knockdown", "format": "cell-based", "details": "SCC-90, SU093 0.5-1000 nM, 48 h", "excerpt": "as §1"}, "ID-8 tumor xenograft": {"tested_on": "ID-8 tumor xenograft", "assay": "Ovarian ID-8 tumor xenograft in C57BL6 mice", "format": "in vivo", "excerpt": "An immunocompetent syngeneic mouse model was used to evaluate in vivo antitumor effect of SU093 and SU056 (also referred to herein as Compound (I)) for ovarian cancer. C57BL6 female mice (n=5/group) were subcutaneously injected in the right flank with 5×10^6 ID-8 cells mixed with matrigel. From the day following xenograft implantation, mice were monitored regularly for tumor growth and once the tumors reached approximately 100 mm^3, the mice were randomly divided into three groups and respective treatments were given.\nGroup I (vehicle control): 100 μl of 10% PEG300 (w/v) in saline;\nGroup II: mice treated with SU093 (20 mg/kg); and\nGroup III: mice treated with SU056 (20 mg/kg).\nDoses were administered intraperitoneally (IP) for 7 days/week for 42 days and the mice were sacrificed on day 43. Tumor sizes were measured twice weekly using digital caliper and tumor volume was calculated by the formula: 0.5236 L1 (L2)^2, where L1 is long diameter, and L2 is short diameter."}, "B2M": {"tested_on": "B2M", "assay": "B2M expression in SCC-90 cells", "format": "cell-based", "details": "SCC-90 cells treated with SU093", "excerpt": "Down-regulation of Major Histocompatibility Complex class I molecules (MHC-I) expression is a widespread phenomenon used by tumor cells to escape antitumor T-cell-mediated immune responses. Reduction in B2-microglobulin (B2M, a molecule associated with MHC-I) helps cancer cells to hide them from immune system (Hicklin, D. J.; Marincola, F. M.; Ferrone, S., HLA class I antigen downregulation in human cancers: T-cell immunotherapy revives an old story. Molecular Medicine Today 1999, S (4), 178-186.) In experiments conducted herein, reduced expression B2M in GBP1-OV cells was observed (FIG. 1, panel F)."}, "[4]": {"assay": "Maximum tolerable dose study, 14 days IP", "format": "in vivo, mice", "description": "FIG. 7, panel A illustrates in vivo PK studies, C57BL/6 mice. Drug concentration in plasma was quantified at different time points using LCMS after a single IP injection of SU093. FIG. 7, panel B illustrates the drug concentration in harvested ovaries and liver of C57BL/6 mice after 14 days of administration with SU093 (100 mg/kg) by daily IP injection.\nTo determine the maximum tolerable dose of an exemplary GBP1 inhibitor, SU093 was administered to C57BL6 female mice (n=10) intraperitoneally at 100 mg/kg for 14 days. […] At the end of the 14th day, mice were sacrificed and organs were harvested."}, "HCT116": {"tested_on": "HCT116", "assay": "MTT cytotoxicity assay, HCT116", "format": "cell-based", "details": "Homo sapiens, HCT-116, Colorectal", "excerpt": "as §4"}, "SCC-90 cells [5]": {"tested_on": "SCC-90 cells", "assay": "Cell cycle analysis of SCC-90 cells, SU093/radiation combination", "format": "cell-based", "details": "SCC-90, SU093 50 nM and/or 10 Gy, 24 h", "excerpt": "as §1"}, "[6]": {"details": "ID-8, 20 mg/kg IP daily, 42 days, vs control"}},
  "note": "Entries after “also recorded” stand apart in the source; their conditions may differ.",
  "data": [
    {"smiles": "COc1ccc2c(c1)N(CCO)C1=C(C(=O)OC1)C2c1ccccc1", "note": "(stereo not drawn) [SU093]", "values": [
      {"measurement": "colony formation / clonogenic potential", "setting": "OVCAR8 cells", "value": "dose-dependent inhibition of clonogenic potential; also recorded: dose-dependent inhibition of colony formation"},
      {"measurement": "radiation sensitizing effect, clonogenic assay", "setting": "SCC-90 cells [1]", "value": "radiosensitization effect; also recorded: significant radiation sensitizing effect"},
      {"measurement": "cytotoxicity compared to GBP1-WT", "setting": "[2]; GBP1-KD OVCAR8 cells", "value": "enhanced cytotoxicity"},
      {"measurement": "cytotoxicity compared to GBP1-WT", "setting": "[2]; GBP1-OV OVCAR8 cells", "value": "reduced cytotoxicity"},
      {"measurement": "IC50", "setting": "SKOV3", "value": 2.68, "unit": "nM"},
      {"measurement": "IC50", "setting": "DU145", "value": 1.12, "unit": "nM"},
      {"measurement": "IC50", "setting": "OVCAR8", "value": 2.49, "unit": "nM"},
      {"measurement": "GBP1 nuclear translocation and β-tubulin expression", "setting": "GBP1", "value": "inhibits the nuclear translocation of GBP1 protein and reduces the tubulin expression; also recorded: blocking its nuclear translocation and reducing β-tubulin expression"},
      {"measurement": "IC50", "setting": "MCF7", "value": 6.23, "unit": "nM"},
      {"measurement": "cytotoxic effect in GBP1 OV and KD cells", "setting": "SCC-90 cells [3]", "value": "GBP1 dependent cytotoxic effect"},
      {"measurement": "gross sign of toxicity (body weight and diet consumption)", "setting": "ID-8 tumor xenograft; 20 mg/kg IP daily, 42 days", "value": "did not show any gross sign of toxicity"},
      {"measurement": "liver toxicity parameters (AST, ALT, Alkaline phosphatase)", "setting": "ID-8 tumor xenograft; ELISA, end of 42 days, vs control", "value": "No significant difference"},
      {"measurement": "reduction in tumor volume", "setting": "ID-8 tumor xenograft; [6]", "value": 37.5, "unit": "%"},
      {"measurement": "tumor weight decreased", "setting": "ID-8 tumor xenograft; [6]", "value": 39.65, "unit": "%"},
      {"measurement": "tumor volume/mouse", "setting": "ID-8 tumor xenograft; ID-8, 20 mg/kg IP daily, end of 6 weeks", "value": "318.81±26.09", "unit": "mm^3"},
      {"measurement": "B2M expression", "setting": "B2M", "value": "induced expression of B2M"},
      {"measurement": "CHEM-22 panel analysis", "setting": "[4]; 100 mg/kg for 14 days", "value": "only acute liver toxicity"},
      {"measurement": "weight loss or sign of toxicity", "setting": "[4]; C57BL6 female mice, 100 mg/kg IP, 14 days", "value": "no significant weight loss or sign of toxicity"},
      {"measurement": "concentration at 14 days", "setting": "[4]; female, C57BL/6, mouse, ovaries, intraperitoneal, 100 mg/kg daily IP, after 14 days, LCMS, read-out: concentration in the target organ (ovaries)", "value": 3730, "unit": "ng/mL"},
      {"measurement": "IC50", "setting": "HCT116", "value": 1.24, "unit": "nM"},
      {"measurement": "cell cycle, SU093/radiation combination", "setting": "SCC-90 cells [5]", "value": "G2/M phase arrest followed by cell death; also recorded: increase in G2/M phase arrest, followed by apoptosis"}
    ]}
  ]
}
